Strand notation (5' to 3'): a small letter for the sugar, then the base; units joined by * are phosphorothioate-linked, units joined directly phosphodiester-linked; [ ] holds rarer units or linkages, { } end groups; capitals alone tell only the bases. e = 2'-O-(2-methoxyethyl) (MOE); k = constrained ethyl (cEt); [5mC] = 5-methylcytosine; d = 2'-deoxy (DNA); m = 2'-O-methyl
System: Yap1 mRNA
Assay: Antisense inhibition of human Yap1 in SNU-449 cells by modified oligonucleotides, single dose (Example 5, RTS36584)
Assay type: cell-based
In short: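 Values are % of untreated control: Yap1 mRNA by quantitative RT-PCR (RTS36584), normalized to RIBOGREEN total RNA. Oligonucleotides were dosed at 2,000 nM, free uptake, in SNU-449 cells, with roughly 48 h exposure before RNA isolation.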

[1] = Table 41, SNU-449 cells, 10,000 cells per well, free uptake, 2,000 nM modified oligonucleotide, approximately 48 hours, RTS36584, normalized to RIBOGREEN, Yap1 mRNA relative to untreated control cells
[2] = Table 43 experiment, SNU-449 cells, 10,000 cells per well, free uptake, 2,000 nM, approximately 48 hours, RTS36584, Yap1 mRNA normalized to RIBOGREEN, relative to untreated control cells
[3] = Yap1 mRNA, percent of untreated control, modified oligonucleotides targeting SEQ ID NO: 1 and 2, Table 47
[4] = Table 50, Yap1 mRNA remaining as percent of untreated control (UT), SNU-449 cells, single dose
[5] = Table 51, Yap1 mRNA remaining as percent of untreated control (UT), SNU-449 cells, single dose
[6] = Table 52, Yap1 mRNA, modified oligonucleotides targeting SEQ ID NO: 1 and 2
[7] = Table 44 experiment, SNU-449 cells, 10,000 cells per well, free uptake, 2,000 nM, approximately 48 hours, RTS36584, Yap1 mRNA normalized to RIBOGREEN, relative to untreated control cells
[8] = Table 39, SNU-449 cells, 10,000 cells per well, free uptake, 2,000 nM oligonucleotide, approx. 48 hours, RTS36584, normalized to RIBOGREEN, Yap1 mRNA relative to untreated control
[9] = Table 49, Yap1 mRNA level relative to untreated control, modified oligonucleotides targeting SEQ ID NO.: 1 and 2

1198792 (antisense kT*eT*kT*dA*dA*dA*dG*dT*dG*dT*dA*dT*eG*eT*k[5mC]*kA) [Compound 1198792]
YAP1 (% UTC) [1]: 48 % UTC

1198283 (kT*kT*dA*dG*dA*d[5mC]*dT*dA*dA*dG*dT*eA*eA*eG*kG*kT; antisense) [Compound 1198283]
YAP1 (% UTC) [2]: 99 % UTC

1197193 (antisense AGGATGCATGGTTTTT; chemistry not fully specified) [Compound 1197193]
YAP1 (% UT) [3]: 15 % UT

1198898 (kA*kT*dA*dT*dG*dG*dA*dA*dA*dT*dT*kG*dT*k[5mC]*dT*k[5mC]; antisense) [Compound 1198898]
YAP1 (% UTC) (Table 45, Yap1 mRNA as percent of untreated control, SNU-449 cells, single dose): 53 % UTC

1197202 (antisense kA*k[5mC]*kT*d[5mC]*dT*dT*dA*dT*dA*dT*dG*dG*dT*kT*kT*kT) [Compound 1197202]
YAP1 (% UT) (Table 48, Yap1 mRNA level relative to untreated control, modified oligonucleotides targeting SEQ ID NO.: 1 and 2): 27 % UT

1198769 (kT*eT*kA*dT*dA*dT*dG*dG*dT*dT*dT*dT*eG*eT*kG*kT; antisense) [Compound 1198769]
YAP1 (% UTC) [1]: 77 % UTC

1197287 (kT*kA*kT*dA*mU*dT*dA*dG*dA*dG*dT*dA*dT*kG*kT*kG) [Compound 1197287]
YAP1 (% UT) [4]: 108 % UT

1197270 (kT*kT*kA*dA*mA*dG*dT*dG*dT*dA*dT*dG*dT*k[5mC]*kA*kG) [Compound 1197270]
YAP1 (% UT) [5]: 2 % UT

1200848 (kA*kT*kA*dT*dT*mG*d[5mC]*dA*dA*dT*d[5mC]*dT*dG*kT*k[5mC]*kT; antisense) [Compound 1200848]
YAP1 (% UT) [6]: 58 % UT

1197177 (antisense kA*kT*kT*dG*dT*d[5mC]*dT*d[5mC]*dA*dT*dG*d[5mC]*d[5mC]*kT*kT*kA) [Compound 1197177]
YAP1 (% UT) [3]: 15 % UT

1198240 (kT*kT*dA*dG*dG*dA*dT*dG*d[5mC]*dA*dT*eG*eG*eT*kT*kT) [Compound 1198240]
YAP1 (% UTC) (Table 42 (separate experiment), SNU-449 cells, 10,000 cells per well, free uptake, 2,000 nM modified oligonucleotide, approximately 48 hours, RTS36584, normalized to RIBOGREEN, Yap1 mRNA relative to untreated control cells): 43 % UTC

1197284 (kA*kG*kT*dA*mU*dG*dT*dG*dG*d[5mC]*dA*dA*dT*kA*kA*kT; antisense) [Compound 1197284]
YAP1 (% UT) [4]: 35 % UT

1198502 (kA*kG*dA*dT*dT*dT*dA*dG*dG*dA*dT*eG*k[5mC]*eA*kT*eG; antisense) [Compound 1198502]
YAP1 (% UTC) [7]: 16 % UTC

1198392 (kA*dA*d[5mC]*dA*d[5mC]*dT*dG*dA*dG*dG*dT*kA*eT*kA*eA*k[5mC]; antisense) [Compound 1198392]
YAP1 (% UTC) [8]: 48 % UTC

1200836 (kT*k[5mC]*kA*dG*dA*mU*dT*dT*dA*dG*dG*dA*dT*kG*k[5mC]*kA; antisense) [Compound 1200836]
YAP1 (% UT) [6]: 72 % UT

1198878 (kT*kT*dT*dA*dA*dA*dG*dT*dG*dT*dA*kT*eG*kT*e[5mC]*kA; antisense) [Compound 1198878]
YAP1 (% UT) [3]: 42 % UT

1198249 (kT*kT*dA*dT*dA*dT*dG*dG*dT*dT*dT*eT*eG*eT*kG*kT; antisense) [Compound 1198249]
YAP1 (% UTC) [2]: 42 % UTC

1198400 (kA*dA*dG*d[5mC]*dA*d[5mC]*dT*dT*dT*dT*dA*k[5mC]*eA*kT*eT*kA; antisense) [Compound 1198400]
YAP1 (% UTC) [8]: 62 % UTC

1198754 (kG*e[5mC]*kT*dT*dT*dG*dG*dA*dA*dG*dA*dT*e[5mC]*eT*kG*kA; antisense) [Compound 1198754]
YAP1 (% UTC) (Table 40 (separate experiment), SNU-449 cells, 10,000 cells per well, free uptake, 2,000 nM oligonucleotide, approx. 48 hours, RTS36584, normalized to RIBOGREEN, Yap1 mRNA relative to untreated control): 23 % UTC

1198522 (kT*kA*dT*dG*dT*dA*dA*dT*dA*dT*dT*eG*k[5mC]*eA*kA*eT; antisense) [Compound 1198522]
YAP1 (% UTC) [7]: 37 % UTC

1198543 (antisense kA*kT*kT*dG*dT*d[5mC]*dT*d[5mC]*dA*dT*dG*d[5mC]*k[5mC]*kT*kT*eA) [Compound 1198543]
YAP1 (% UT) [9]: 15 % UT

1197261 (kT*k[5mC]*kT*dT*mA*dT*dA*dT*dG*dG*dT*dT*dT*kT*kG*kT) [Compound 1197261]
YAP1 (% UT) [5]: 91 % UT

1198304 (kA*kG*kG*dT*dA*dT*dA*dA*d[5mC]*dT*dG*dG*kG*e[5mC]*kA*eA; antisense) [Compound 1198304]
YAP1 (% UT) [9]: 33 % UT

1198589 (antisense k[5mC]*kA*kG*dA*dT*dT*dT*dA*dG*dG*dA*dT*kG*k[5mC]*kA*eT) [Compound 1198589]
YAP1 (% UT) [4]: 24 % UT
